A word on the IC50: it is the concentration that inhibits the measured activity by half.

Consider six compounds from patent publication US11168069B2, “Heterocyclylsulfonyl-substituted pyridines and their use in the treatment of cancer” (Oblique Therapeutics AB, priority 2017, dated 2021).

In assay [1] the target is recombinant thioredoxin reductase 1 (TrxR1) (Homo sapiens (Human), UniProt Q16881). Description: Inhibition of recombinant TrxR1 (DTNB assay). Format: biochemical. Conditions: 30 nM TrxR1, 250 μM NADPH, 15 minutes incubation, O.D. 412 nm, read-out: TrxR Assay IC50. The procedure: (§1) Small molecule inhibition of recombinant thioredoxin reductase 1 (TrxR1) and gluthathione reductase (GR) was examined in 96-well plate format. 30 nM TrxR1 was incubated in the presence of 250 μM NADPH, 0.1 mg/ml BSA, and various concentrations of compound (1% DMSO final) in 50 mM Tris (pH 7.5) and 2 mM EDTA buffer for 15 minutes. Following the incubation period, 2 mM DTNB was added to each well and the change in O.D. at 412 nm was followed. Percent activity was determined using DMSO vehicle and no TrxR1 (blank) controls. 2 nM GR was incubated in the presence of 250 μM NADPH, 0.1 mg/ml BSA, and various concentrations of compounds (1% DMSO final) in 50 mM Tris (pH 7.5) and 2 mM EDTA buffer for 15 minutes. Following the incubation period, 1 mM GSSG was added to each well and the change in O.D. at 340 nm was followed. Percent activity was determined using DMSO vehicle and no GR (blank) controls.
Sequence of recombinant thioredoxin reductase 1 (TrxR1) (Q16881 151-649): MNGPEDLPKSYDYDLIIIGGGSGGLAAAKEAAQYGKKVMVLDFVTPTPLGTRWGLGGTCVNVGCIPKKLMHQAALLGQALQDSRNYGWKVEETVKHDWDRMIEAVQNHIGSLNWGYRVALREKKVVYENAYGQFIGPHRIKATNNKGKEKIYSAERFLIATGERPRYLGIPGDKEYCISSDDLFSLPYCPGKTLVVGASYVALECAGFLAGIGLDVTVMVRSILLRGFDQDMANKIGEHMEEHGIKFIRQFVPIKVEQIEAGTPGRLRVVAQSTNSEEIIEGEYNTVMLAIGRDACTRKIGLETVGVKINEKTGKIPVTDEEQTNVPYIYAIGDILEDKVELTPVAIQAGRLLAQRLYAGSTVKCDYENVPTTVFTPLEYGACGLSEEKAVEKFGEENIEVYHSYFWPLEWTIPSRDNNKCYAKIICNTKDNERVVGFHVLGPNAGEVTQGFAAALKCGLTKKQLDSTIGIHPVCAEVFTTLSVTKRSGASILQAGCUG

In assay [2] the test system is U-87 MG. Description: Cancer cell viability assay (MTT), U-87 MG. Format: cell-based. The following applies: Homo sapiens, 72 hrs, 10% FBS media. The procedure:
(§2) Breast cancer and glioblastoma cell lines were plated 4000 cells/well in 96-well plates in the presence of 10% FBS media. The following day cells were treated with various concentrations of example compounds (0.1% DMSO final) and incubated for 72 hrs. After the incubation An MTT assay was performed to access cell viability. Percent of viability was determined using DMSO vehicle and no cell (blank) controls.

The test system of assay [3] is MDA-MB-468. Description: Cancer cell viability assay (MTT), MDA-MB-468. The format is cell-based. Conditions: Homo sapiens, 72 hrs, 10% FBS media. The procedure: as §2
Assay [4] concerns MDA-MB-231. Description: Cancer cell viability assay (MTT), MDA-MB-231. The format is cell-based. The following applies: Homo sapiens, 72 hrs, 10% FBS media. Here is the method: as §2
For assay [5], the target named is recombinant gluthathione reductase (GR) (Homo sapiens (Human), UniProt P00390). Description: Inhibition of recombinant GR (GSSG assay). The format is biochemical. The following applies: 2 nM GR, 250 μM NADPH, 15 minutes incubation, O.D. 340 nm. The procedure:
as §1

Assay [6] relates to MDA-MB-231 cells. Put plainly: Breast cancer cell viability assay (Alamar Blue). Format: cell-based. Conditions: Homo sapiens, 72 hrs, 10% FBS media containing 25 nM selenite. The procedure:
MDA-MB-231 cells were plated 2000 cells/well in 96-well black optical plates in the presence of 10% FBS media containing 25 nM selenite. The following day cells were treated with various concentrations of compounds (0.1% DMSO final) and incubated for 72 hrs. After the incubation Alamar Blue reagent was added to each well and incubated for additional 3 hrs. Fluorescence was read ex:530 nm/em:590 nm, and percent of viability was determined using DMSO vehicle and no cell (blank) controls.
On the technique in general: The colour change of resazurin is a common sign of viable cells or microbes.

Sequence of recombinant gluthathione reductase (GR) (P00390 44-522): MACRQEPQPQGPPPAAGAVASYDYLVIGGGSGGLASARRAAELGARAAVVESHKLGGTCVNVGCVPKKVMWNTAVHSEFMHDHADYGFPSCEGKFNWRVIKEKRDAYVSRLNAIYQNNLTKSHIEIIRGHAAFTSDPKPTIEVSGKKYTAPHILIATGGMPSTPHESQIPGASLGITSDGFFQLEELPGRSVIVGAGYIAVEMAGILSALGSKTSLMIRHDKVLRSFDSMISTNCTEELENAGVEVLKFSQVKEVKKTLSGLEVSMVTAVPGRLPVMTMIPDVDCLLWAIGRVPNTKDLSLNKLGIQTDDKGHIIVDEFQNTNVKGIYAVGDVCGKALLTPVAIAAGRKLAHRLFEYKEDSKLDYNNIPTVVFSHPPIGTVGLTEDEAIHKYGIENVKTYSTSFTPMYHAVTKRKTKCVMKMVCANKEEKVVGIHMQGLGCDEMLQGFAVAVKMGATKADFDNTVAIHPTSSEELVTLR

Regarding `COc1ccc([N+](=O)[O-])c(S(=O)(=O)C2CCOC2C)n1` (stereo not shown) [Example 1], the IC50 is 0.093 µM in assay [1]; 8.89 µM in assay [2]; 4.14 µM in assay [3]; 8.94 µM in assay [4]; greater than 100 µM in assay [5]; 4.53 µM in assay [6].
Take `COc1ccc([N+](=O)[O-])c(S(=O)(=O)C2CCN(C(C)=O)CC2)n1` [Example 2, 1-(4-((6-methoxy-3-nitropyridin-2-yl)sulfonyl)piperidin-1-yl)ethan-1-one]: the IC50 in assay [1] is 0.391 µM; in assay [2], 10.6 µM; in assay [3], 4 µM; in assay [4], 9.97 µM; in assay [5], greater than 100 µM; in assay [6], 12.3 µM.
For `COc1ccc([N+](=O)[O-])c(S(=O)(=O)C2CCOCC2)n1` [Example 3, 6-methoxy-3-nitro-2-((tetrahydro-2H-pyran-4-yl)sulfonyl)pyridine], the IC50 was 0.0391 µM in assay [1]; 6.11 µM in assay [2]; 4.34 µM in assay [3]; 7.53 µM in assay [4]; greater than 100 µM in assay [5]; 5.08 µM in assay [6].
Turning to `COc1ccc([N+](=O)[O-])c([S+]([O-])C2CCOC2C)n1` (stereo not shown) [Example 4, 6-Methoxy-2-(2-methyl-tetrahydro-furan-3-ylsulfinyl)-3-nitro-pyridine], the concentration for half-maximal inhibition (IC50) in assay [1] is 1.01 µM; in assay [2], 9.27 µM; in assay [3], 2.1 µM; in assay [4], 3.54 µM; in assay [5] it was greater than 100 µM.
Take `COc1ccc([N+](=O)[O-])c([S+]([O-])C2CCOCC2)n1` (stereo not shown) [Example 5, 6-Methoxy-3-nitro-2-(tetrahydro-pyran-4-ylsulfinyl)-pyridine]: the IC50 was 4.33 µM in assay [1], 2.4 µM in assay [3], 3.57 µM in assay [4] and greater than 100 µM in assay [5].
Take `COc1ccc([N+](=O)[O-])c([S+]([O-])C2CCN(C(C)=O)CC2)n1` (stereo not shown) [Example 6, 1-[4-(6-Methoxy-3-nitro-pyridin-2-ylsulfinyl)-piperidin-1-yl]-ethanone]: the IC50 in assay [1] is 4.06 µM; in assay [3] it was 5.58 µM; in assay [4] it was 11.6 µM; in assay [5], greater than 100 µM.
